From patent US20250180581A1, “COMPOSITIONS AND METHODS FOR CHARACTERIZING AND TREATING PSYCHIATRIC ILLNESS” (Trustees of Tufts College, priority 2023, published 2025)

What was measured:
[1] = test system: mice subjected to chronic unpredictable stress (CUS); assay: Chronic unpredictable stress (CUS) in mice, behavioral state (learned helplessness, social interaction, anhedonia); format: in vivo; conditions: exogenous allopregnanolone treatment after 3 weeks CUS; FIGS. 3B-3D
Text: In each graph, from left to right, the first bar is control, second bar is mice following CUS, and the third bar is mice following CUS and with exogenous allopregnanolone treatment.
Decreased expression of 5α-reductase 1 and 2 is associated with chronic stress, a major risk factor for depression. […] Reduced endogenous neurosteroids impaired the affective state.

[2] = test system: women with PPD; conditions: zuranolone treatment; cited from earlier work

Row | Compound | behavioral state of the mice following CUS (learned helplessness, social interaction, anhedonia) [1] | women with PPD exhibiting a rapid antidepressant response [2] [%]
1 | CC(=O)[C@H]1CC[C@H]2[C@@H]3CC[C@H]4C[C@H](O)CC[C@]4(C)[C@H]3CC[C@]12C [allopregnanolone] | restored the behavioral state | –
2 | C[C@@]1(O)CC[C@H]2[C@H](CC[C@@H]3[C@@H]2CC[C@]2(C)[C@@H](C(=O)Cn4cc(C#N)cn4)CC[C@@H]32)C1 [zuranolone] | – | 57
